According to patent US12109266B2, “Modulating gabarap to modulate immunogenic cell death” (Dana-Farber Cancer Institute, Inc., priority 2020, dated 2024):
“Also recorded” adds a separate entry of the source.

Tests used:
[1] = system: UPR transducer PERK pathway; assay: Western blot of UPR/PERK pathway; assay type: cell-based; details: AMO1 and 5TGM1 cells
Method: Cell lysis was performed in RIPA buffer (Boston Bio Products) supplemented with Halt™ protease and phosphatase inhibitor cocktail (Thermo Fisher Scientific). Immunoblot analysis was performed to evaluate expression levels of total protein and phospho-specific isoforms. SDS-PAGE was performed on NuPage™ Bis-Tris gels (ThermoFisher Scientific) using MOPS or MES running buffer. Gels were dry transferred onto 0.45 μm nitrocellulose membranes using the iBlot® Dry Blotting System (ThermoFisher Scientific). The following antibodies (Abs) were used and purchased from Cell Signaling Technology: CRT (Cat. #12238) and GABARAP (Cat. #13733). GAPDH (Cat. #2118) was used as loading controls.
Cell lysis was performed in RIPA buffer (Boston Bio Products) supplemented with Halt protease and phosphatase inhibitor cocktail (ThermoFisher Scientific). SDS-PAGE was performed on NuPage Bis-Tris gels (ThermoFisher Scientific) using MOPS or MES running buffer. Gels were dry transferred onto 0.45 μm nitrocellulose membranes using the iBlot® Dry Blotting System (ThermoFisher Scientific). The following Abs were purchased from Cell Signaling Technology: EIF2A (#5324), p-EIF2A (#3398), ATF4 (#11815), CHOP (2895), CALR (#12238), cGAS (#15102), TBK1 (#3504), pTBK1 (#5483), pIRF3 (#29047), STING (#13647). GAPDH (#2118) and B-ACTIN (#4970) were used as loading controls.

U266 cells = assay: Cytotoxicity assay (T cell lysis of MM cells); assay type: cell-based, human; details: T cells from BTZ co-culture, 24 h
Method: After coculture of HLA-matched DCs and T cells from healthy donors with either untreated or BTZ-treated U266 cells for 5 days, T cells were negatively selected using the Pan T cell Isolation Kit (Miltenyi Biotec) and plated in round bottom 96-well plates with naïve U266 cells pre-stained with CFSE dye (ThermoFisher Scientific) at different target:effector (T:E) ratios for 24 h in the presence of IL-2 (#130-097-74, Miltenyi Biotec). Then cells were 7AAD-stained, and detection of viable CFSE-gated cells was performed using BD LRSFortessa X-20 cytometer.

5TGM1 tumors [2] = assay: In vivo tumor growth analysis; parameters: species or system mouse
Method: (§1) 6-week old female immunodeficient NOD.CB17-Prkdcscid/NCrCrl (NOD/SCID) mice (Charles River) and immunocompetent C57BL/KaLwRijHsd (Envigo) mice were housed in an animal facility at the Dana-Farber Cancer Institute (DFCI). All experiments were performed after approval by the Animal Ethics Committee of the DFCI and performed using institutional guidelines.
To assess the effect of BTZ in the absence of an immune system, NOD/SCID mice were subcutaneously injected with 1×10^6 5TGM1 WT cells in a 1:1 ratio with Matrigel® (Corning); to assess BTZ in an immunocompetent host, C57BL/KaLwRijHsd mice were injected with 1×10^6 5TGM1 either WT or calrKO in the same ratio with Matrigel®. When tumor became measurable, mice (5/group) were randomized to receive either PBS or BTZ administered intra peritoneally (i.p.) 0.5 mg/kg twice/week for 2 weeks. Tumor sizes were measured and mice were sacrificed when tumors reached 2 cm in diameter or ulceration or major compromise in quality of life. A parallel experiment was performed to allow for tumor harvesting after two injections i.p. of BTZ for RNA-seq analysis, as detailed below.
as §1, with “(NOD/SCID)” for “(NOD/SCID) mice”, “in the” for “in an”, “at DFCI.” for “at the Dana-Farber Cancer Institute (DFCI).”
(§2) NOD/SCID and C57BL/KaLwRijHsd mice were subcutaneously (sc) injected with 1×10^6 5TGM1 either WT or Calr^KO cells in PBS. When tumor became measurable, mice were randomized to receive either PBS or BTZ administered intra peritoneally (i.p.) 0.5 mg/kg twice/week for 2 weeks. Tumor sizes were measured as previously described (46), and mice were sacrificed when tumors reached 2 cm in diameter or ulceration or major compromise in quality of life. A parallel experiment was performed to allow for tumor harvesting after two injections ip of BTZ for RNA-seq analysis, as detailed below. For BTZ and STING agonist combination studies, C57BL/KaLwRijHsd (n=5/group) and SCID/NOD (n=6/group) mice bearing 5TGM1 WT and C57BL/KaLwRijHsd mice (n=5/group) bearing 5TGM1 Sting^KO tumors were randomized to receive: PBS, BTZ (0.375 mg/kg twice a week for 2 weeks, i.p.), ADU-S100 (100 μg) administered in the peritumoral area (day 1 and 2), or a combination. Tumor sizes were measured as described above. A parallel experiment in C57BL/KaLwRijHsd mice was performed to allow for tumor harvesting after one administration of either BTZ or ADU-S100. Tumors were fixed in 10% formalin for 24 h, and then maintained in 70% ethanol prior to paraffin embedding and processing for IHC to detect CD3 (#nb600 Ab, Novus Bio).

5TGM1 tumors [3] = assay: IHC CD3 staining of tumors; assay type: in vivo, mouse; details: tumors retrieved after one administration of the drugs
Method: as §2

CALR = assay: Mass spectrometry after CALR immunoprecipitation; assay type: cell-based, human; details: AMO1 WT vs GABARAP^KO, with or without BTZ
Description: To test this hypothesis, the CALR network was explored at the protein level by performing mass spectrometry (MS) after CALR immunoprecipitation (IP) in WT or GABARAP^KO AMO1 cells in the presence or absence of BTZ. […] CALR trap in the mitochondria has been recently reported in tumors with high stanniocalcin 1 (STC1), a newly recognized phagocytosis checkpoint driving tumor immune resistance (Lin et al. (2021) Cancer Cell. April 12; 39(4):480-493.e6. doi: 10.1016/j.ccell.2020.12.023. Epub 2021 Jan. 28. PMID: 33513345; PMCID: PMC8044011). […] A WB analysis of FLAG-immunoprecipitated proteins in […] cells expressing FLAG-tagged GABARAP was performed to analyze GABARAP interacting partners. […] These findings identify a molecular mechanism whereby GABARAP prevents STC1 binding to CALR; conversely, in low-GABARAP cells STC1 binding to CALR induces trapping of CALR in the mitochondria (FIG. 34).

STC1 = assay: Western blot of STC1; assay type: cell-based

CC(C)C[C@H](NC(=O)[C@H](Cc1ccccc1)NC(=O)c1cnccn1)B(O)O [BTZ, bortezomib]
PERK pathway activation (p-eIF2-alpha, CHOP, ATF4) [1]: activated the UPR transducer PERK pathway
lysis of MM cells by T cells isolated after co-culture (U266 cells): able to efficiently induce lysis of multiple myeloma cells
tumor growth (5TGM1 tumors [2]; 5TGM1 Calr^KO tumors in immunocompetent mice, BTZ 0.5 mg/kg twice/week for 2 weeks): antagonized in CALR^KO tumors; also recorded: abrogated in mice bearing CRT^KO tumors; also recorded: abrogated in immunocompetent mice bearing 5TGM1 Calr^KO tumors
anti-tumor activity (5TGM1 tumors [2]; 5TGM1 Sting^KO tumors in immunocompetent mice): significantly abrogated against tumors lacking Sting; also recorded: significantly reduced in vivo against multiple myeloma tumors lacking Sting
tumor growth (5TGM1 tumors [2]; 5TGM1 WT in immunocompetent C57BL/KaLwRij mice, BTZ 0.5 mg/kg twice/week for 2 weeks i.p.): induces tumor regression in the presence of the immune system; also recorded: more potent 5TGM1 tumor cell shrinkage in immunocompetent hosts; also recorded: inhibited growth of 5TGM1 WT cells engrafted in immunocompetent (C57BL/KaLwRij) mice (FIG. 19A) to a greater extent than when these cells were engrafted in immunodeficient hosts; also recorded: induces ICD in a syngeneic murine model of MM
anti-tumor effects (5TGM1 tumors [2]; 5TGM1 WT in immunodeficient NOD/SCID mice, BTZ 0.375 mg/kg, ADU-S100 100 ug day 1 and 2): abrogated the anti-tumor effects
tumor growth (5TGM1 tumors [2]; 5TGM1 WT in immunodeficient SCID/NOD mice, BTZ 0.5 mg/kg twice/week for 2 weeks i.p.): can efficiently delay tumor growth in immunodeficient mice
CD3+ T cell infiltration within tumors (IHC) (5TGM1 tumors [3]): increased CD3+ T cell infiltration within tumors
binding of CALR to mitochondrial proteins (CALR): increases the binding of CALR to mitochondrial proteins in AMO1 GABARAP^KO cells and not WT cells; also recorded: increase of the binding of CALR to mitochondrial proteins only in AMO1 GABARAP^KO cells; also recorded: CALR localizes to the mitochondria after treatment with BTZ in GABARAP KO cells
STC1 protein levels (STC1; GABARAP^KO cells after BTZ): intracellular levels of STC1 are even higher after BTZ treatment
STC1 protein levels (STC1; WT cells (5TGM1, AMO1) after BTZ): STC1 protein levels decrease in WT cells after BTZ treatment
